test: in vitro; settings: human, hela cells, % viability

| SMILES | viability at 28.5 h, 10 µM |
| --- | --- |
| Cc1ccc(Cl)cc1NC(=O)OCCN(C)C [CBK016906] | 98.3% |
| O=C(O)c1cccc(S(=O)(=O)Nc2nc3ccc(Cl)cc3s2)c1 [CBK299793] | 103% |
| Cc1cc2c(cc3c(=O)n(CC(=O)OC(C)C)nc(C)n32)s1 [CBK284071] | 98.6% |
| COc1nccnc1OC1CCN(Cc2ccc(Cl)cc2)CC1 [CBK084240] | 98.7% |
| N#Cc1ccc(C(=O)N2CCN3C(=O)[C@H](Cc4ccc(F)cc4)NC(=O)[C@H]3C2)cc1 [CBK289602] | 106% |
| CC(=O)Nc1ccc(S(=O)(=O)N2CCN(Cc3ccc([N+](=O)[O-])cc3)CC2)cc1 [CBK264231G] | 94.3% |
| Cc1ccc(C2=NN(c3ccccc3)C(c3cn(CCC(=O)O)nc3-c3ccccc3)C2)cc1 (stereo not shown) [CBK296110] | 107% |
| O=C(NC(c1ccc(Cl)cc1)c1ccsc1)C1CCN(S(=O)(=O)CC(F)(F)F)CC1 (stereo not shown) [CBK060088] | 89.1% |
| O=C(O)[C@H]1CN(C(=O)c2ccco2)C[C@@H]1c1ccccc1F [CBK283820] | 80.6% |
| Cn1cc(CNCC2CCN(CCO)CC2)c(-c2cccnc2)n1 [CBK305153] | 91.2% |
| O=C(CCN1C(=O)c2ccccc2C1=O)N(CCO)Cc1ccccc1 [CBK265565] | 110% |
| Cc1nsc(NCc2ccccc2CN2CCC(O)CC2)c1C#N [CBK304695] | 95.1% |
| NNC(=O)CSc1nnc(-c2ccccc2)n1-c1ccccc1 [CBK223486] | 92.5% |
| CN(C)C(=O)c1ccc(-c2ncc(OCc3cccs3)nc2N)cc1 [CBK145187] | 102% |
| CCOc1ccc(S(=O)(=O)N2CCN(Cc3cc(F)c(F)c(F)c3)CC2)c2cccnc12 [CBK062795] | 95.4% |
| O=C(Nc1ccccc1)c1ccc(F)cc1-n1cnnn1 [CBK287903] | 111% |
| Cc1csc2c(C3CCCN(C(=O)c4cc[nH]n4)C3)nc(C)n12 (stereo not shown) [CBK285238] | 88.1% |
| Cc1nn(-c2ccccc2)c(O)c1/C=N/c1ccccc1Sc1c(C)n[nH]c1C [CBK262048] | 89.1% |
| Cc1ccccc1OCCSc1nc2ccccc2n1CCO [CBK262523] | 98.1% |
| COc1cc(F)cc(OC2CCNCC2)c1NC(=O)C1=CC(=O)CC(C)(C)O1 [CBK050352T] | 96.9% |
| Cc1nc(-c2ccccc2)sc1CNC(=O)C(C)c1ccc([N+](=O)[O-])cc1 (stereo not shown) [CBK092364] | 98% |
| O=C(O)CCSc1nnc(-c2cccc(Br)c2)o1 [CBK286540] | 82.8% |

| SMILES | viability at 28.5 h, 10 µM |
| --- | --- |
| Cc1nc(NS(=O)(=O)/C=C/c2ccccc2)sc1C(=O)O [CBK045553] | 84.7% |
| O=C(c1ccccn1)N1C[C@@H]2OCC(=O)N(Cc3ccccc3)[C@@H]2C1 [CBK289698] | 84.3% |
| O=C(O)c1ccc(S(=O)(=O)c2ccc3c(c2)C(=O)N(c2cc(C(=O)O)cc(C(=O)O)c2)C3=O)cc1 [CBK262824] | 92.8% |
| CCCCC(c1cccnc1)N(C)C(=O)CCc1ccnn1C (stereo not shown) [CBK306664] | 117% |
| Cc1ccccc1NC(=O)NCCCN1CCN(C)CC1 [CBK267837] | 85.2% |
| COc1ccc2c(c1)c(C)c(C(=O)N1CCCCC1CN(C)C)n2C (stereo not shown) [CBK282190] | 90.1% |
| CCc1nn(Cc2ccccn2)c(=O)c2cc3sccc3n12 [CBK284074] | 46.8% |
| Cc1conc1C(=O)N1CCCCC1CN1CCOCC1 (stereo not shown) [CBK304771] | 92.7% |
| Oc1ccc(-c2cncc(-c3ccc(F)cc3)n2)cc1 [CBK123794] | 93.7% |
| CC(NCCCN(C)C)=C1C(=O)c2ccccc2C1=O [CBK262674] | 81.6% |
| Cc1cc(-c2ccc(=O)n(C3CCN(C(=O)C4CC4)CC3)n2)c(C)o1 [CBK284462] | 87.2% |
| CCNC(=O)[C@H]1CC[C@]2(CC1)CNC(=O)c1cc(Cl)ccc1O2 [CBK284890] | 95.4% |
| COCCOc1ccc(C(=O)N[C@@H]2CNCCC[C@H]2O)cc1 [CBK289071] | 94.6% |
| Cc1noc(C)c1CC(=O)NCc1cccc(C#N)c1 [CBK305822] | 106% |
| COc1cccc(CN2CCN(C(=O)c3ccco3)CC2)c1OC [CBK074380] | 87.4% |
| c1nc(N2CCOCC2)c2cn[nH]c2n1 [CBK016811] | 86.3% |
| O=C1CCC(=O)N1CCn1c(=O)n(S(=O)(=O)c2cccc(Cl)c2)c2ccccc21 [CBK106493] | 93.1% |
| CCOc1cc(F)ccc1NC(=O)CC1CCN(c2nc(C)cc(C)n2)CC1 [CBK285958] | 103% |
| O=C(c1ccc(F)cc1)C1CCN(Cc2ccc(Cl)c(Cl)c2)CC1 [CBK149114] | 98.5% |
| O=C1N/C(=N/c2ccccc2Cl)S/C1=C/c1ccc(-c2ccccc2Cl)o1 [CBK067752] | 89.3% |
| CN1CCN(C(=O)c2ccccc2NC(=O)NC2CCCCC2)CC1 [CBK269771] | 94% |
| O=C(NCCN1CCOCC1)c1cccc(S(=O)(=O)N2CCCC2)c1 [CBK267316] | 98.2% |

| SMILES | viability at 28.5 h, 10 µM |
| --- | --- |
| Cc1ccc(-n2ncc3c(=O)n(CC(=O)Nc4cccc(C)c4)cnc32)cc1 [CBK287533] | 103% |
| O=C(c1ccc(F)cc1)N1CCN(c2ccc(Nc3ccncc3)nn2)CC1 [CBK287836] | 99.7% |
| CC(C)Cn1ncc2cc(C(=O)Nc3cccnc3N(C)C)cnc21 [CBK304891] | 87.1% |
| O=C(Cc1cccnc1)N1CCC(O)(c2cccc(F)c2)CC1 [CBK283537] | 95.9% |
| CCCCN(Cc1ccccc1)C(=O)[C@H]1CCCC[C@H]1C(=O)O [CBK286596] | 85.3% |
| O=S(=O)(O)c1ccc(N/N=C/c2cccc(/C=N/Nc3ccc(S(=O)(=O)O)cc3)c2)cc1 [CBK278204N] | 89% |
| CC(C)CC(=O)N1CCC(c2nnc3n2CCCCC3)CC1 [CBK284629] | 83.2% |
| COc1ccc(C(=O)N2CCC3(CCN(Cc4cccc(C#N)c4)C3)C2)cc1OC (stereo not shown) [CBK132153] | 87.7% |
| COCCCOc1cncc(N2CCCC2)n1 [CBK115759] | 92.4% |
| Nc1ccc(-n2c(-c3ccccc3)c3c(c2-c2ccc(Cl)cc2)C(=O)c2ccccc2C3=O)cc1 [CBK262695] | 87.3% |
| CC1CCCN(C(=O)C2C3CCC4(CC(=O)c5ccccc5O4)C32)C1 (stereo not shown) [CBK284932] | 89.8% |
| Cc1cc2c(o1)c1cnn(CC(=O)N3CCCCCC3)c(=O)c1n2C [CBK284219] | 81.2% |
| O=C(Nc1cccc(C(F)(F)F)c1)Nc1cc(N2CCNCC2)c2occc2c1 [CBK061746C] | 91.4% |
| CCOc1cc2c(cc1NS(=O)(=O)c1cc(C(=O)O)ccc1C)OC(C)C2 (stereo not shown) [CBK296711] | 101% |
| CCn1c(Cc2ccccc2)nnc1SCC(=O)Nc1cc(Cl)ccc1O [CBK268689] | 104% |
| CC(=O)N1CCOC(CNc2nc(C(C)(C)C)nc3c2cnn3C)C1 (stereo not shown) [CBK307469] | 89.4% |
| CC(C)CC1(C(CN2C(=O)c3ccccc3C2=O)C(=O)NO)CCN(CCc2ccccc2)C1=O (stereo not shown) [CBK013029] | 103% |
| CC1CCN(S(=O)(=O)c2cc(S(=O)(=O)N3CCC(C)CC3)c3cccc4c3c2NC4=O)CC1 [CBK263716] | 91.2% |
| COc1cc2cc3c(N)c(C(=O)N4CCCc5ccccc54)sc3nc2cc1OC [CBK117298] | 102% |
| Cc1nc(NS(=O)(=O)c2cccc(Cl)c2C)sc1C(=O)O [CBK045561] | 110% |
| Cn1c(COc2ccccc2)nnc1SCc1nnc(-c2ccccc2)o1 [CBK269628] | 94.1% |
| Cc1c(C(=O)O)sc(S(=O)(=O)N2CCN(C(=O)CCc3cccs3)CC2)c1C(=O)O [CBK297135] | 105% |

| SMILES | viability at 28.5 h, 10 µM |
| --- | --- |
| OCCn1ncc2c(NCc3nncn3-c3ccccc3)ncnc21 [CBK304608] | 98.5% |
| O=C(CCN1Cc2ccccc2C1=O)NCCN1CCc2ccccc21 [CBK282632] | 97.5% |
| Cc1nn(C)c(C)c1C(=O)Nc1sc2c(c1C#N)CCC(C)C2 (stereo not shown) [CBK304645] | 54.9% |
| COc1cc(NC(=O)c2ccc3c(c2)C(=O)N(c2ccccc2OC)C3=O)c(C(=O)O)cc1OC [CBK262787] | 95.1% |
| COc1ccccc1NC(=O)Cn1c(=O)oc2cc(Cl)ccc21 [CBK269344] | 94.6% |
| O=C1N[C@@]2(CC3CCC2CC3C(=O)NC2CC2)Nc2ccccc21 (stereo partly shown) [CBK284454] | 85.9% |
| COc1ccc(S(=O)(=O)N2CCSC2)cc1C [CBK097882] | 106% |
| CC1CCCN(c2nc3nc[nH]c(=O)c3s2)C1 (stereo not shown) [CBK288120] | 83.4% |
| O=C1CCC(=O)N1CCOc1nccnc1OC1CCN(CC2CCCCC2)CC1 [CBK084357] | 105% |
| CCc1ccc2c(c1)C(CCNC(=O)c1sccc1C)C(=O)N2 (stereo not shown) [CBK306459] | 88.5% |
| O=C(CSc1nnc(CN2CCOCC2)n1-c1ccccc1)N1CCN(c2ccccc2)CC1 [CBK266660] | 102% |
| Cc1ccc(S(=O)(=O)N=C2NCN(CC(=O)O)CN2)cc1 [CBK261983N] | 93.6% |
| CCSc1nc2ccccc2n1C(=O)c1ccc(S(=O)(=O)N2CCCCCC2)cc1 [CBK265825] | 91.6% |
| CCCN1CCC(CNC(=O)c2cc3c(OC)cccc3n2C)CC1 [CBK283255] | 90.1% |
| Cc1cc2ncc3c(n2n1)CC1CCC3N1Cc1ccc(F)c(F)c1 (stereo not shown) [CBK284378] | 90.9% |
| O=[N+]([O-])c1ccc(CN2CCN(c3nccnc3Oc3ccc(F)cc3)CC2)cc1 [CBK083015T] | 92.2% |
| CCC(C)NS(=O)(=O)c1ccc(OCC(=O)O)cc1 (stereo not shown) [CBK266521] | 120% |
| COC(=O)c1cccc2c1CCCN2Cc1nnc(C2CCC2)o1 [CBK304072] | 105% |
| Fc1cnc(Nc2ccccc2)nc1N1CCOCC1 [CBK287279] | 76.5% |
| CC(C)[C@H]1NC(=O)[C@@H]2[C@@H](NC(=O)NC3CCCCC3)CCN2C1=O [CBK289264] | 113% |
| CCN(CC)CCCOC1(C)SC(NC2CCCCCC2)=NC1=O (stereo not shown) [CBK113510] | 86.5% |
| CN1CCN(C(S)=Nc2ccc(S(N)(=O)=O)cc2)CC1 [CBK265223] | 92.5% |

Reference: publication PMC12040169 (PLOS Biology, 2025)
